The series can be described thus: in vitro. In kind it is in vitro ADME. Conditions: human. In short, it runs like this: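 Permeability measured in both directions across 19-day Caco-2 layers with TEER above 600 […], incubated at 37° C without shaking; donor and receiver sampled at 10 and 90 min for LC/MS/MS. Derived values: Papp (cm/s), efflux ratio, recovery.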
[1] abbreviates: Caco-2 monolayer, apical to basolateral, 90-minute incubation, read-out: Papp, A-B.
Setting [2] is: Caco-2 monolayer, basolateral to apical, 90-minute incubation, read-out: Papp, B-A.
Where [3] appears, read: Caco-2 monolayer, ER>2 indicates potential efflux transporter substrate, read-out: ER (efflux ratio).

SMILES strings stand for the structures. Where two headings read alike, the source gives them in different places.

What is called Papp A→B is the apparent permeability from the apical to the basolateral side of a cell layer. The term Papp B→A denotes how fast a substance crosses the layer from the basolateral side.

In the case of `CC(C)[C@H](N)C(=O)OC[C@H]1O[C@@](C#N)(c2ccc3c(N)ncnn23)[C@H](O)[C@@H]1OC(=O)Cc1ccccc1` [Compound 36, ((2R,3S,4R,5R)-5-(4-aminopyrrolo[2,1-f][1,2,4]triazin-7-yl)-5-cyano-4-hydroxy-3-(2-phenylacetoxy)tetrahydrofuran-2-yl)methyl L-valinate], the Papp A→B at 90 min under setting [1] was determined as 1.1 ×10⁻⁶ cm/s. Moreover, under setting [2], the Papp B→A at 90 min was found to be 10.3 ×10⁻⁶ cm/s. For the same compound, the efflux ratio at 90 min under setting [3] was found to be 9.8.

Consider `N#C[C@@]1(c2ccc3c(NC(=O)[C@@H](N)Cc4ccc(F)cc4)ncnn23)O[C@H](CO)[C@@H](OC(=O)CC2CCCCC2)[C@H]1O` [Compound 137, (2R,3S,4R,5R)-5-(4-((S)-2-amino-3-(4-fluorophenyl)propanamido)pyrrolo[2,1-f][1,2,4]triazin-7-yl)-5-cyano-4-hydroxy-2-(hydroxymethyl)tetrahydrofuran-3-yl 2-cyclohexylacetate], for which, for the setting “Caco-2”, the Papp A→B at 90 min is 0.6 ×10⁻⁶ cm/s, the Papp B→A at 90 min stood at 2.7 ×10⁻⁶ cm/s and the efflux ratio at 90 min came to 4.5.

Regarding `CCC(=O)O[C@H]1[C@@H](O)[C@](C#N)(c2ccc3c(NC(=O)C(C)C)ncnn23)O[C@@H]1COC(=O)[C@@H](N)C(C)C` [Compound 362, ((2R,3S,4R,5R)-5-cyano-4-hydroxy-5-(4-isobutyramidopyrrolo[2,1-f][1,2,4]triazin-7-yl)-3-(propionyloxy)tetrahydrofuran-2-yl)methyl L-valinate], under “Caco-2”, the apparent permeability from apical to basolateral (Papp A→B) at 90 min was 4.6 ×10⁻⁶ cm/s, the Papp B→A at 90 min stood at 6.7 ×10⁻⁶ cm/s and the efflux ratio at 90 min was 1.5.

On to `N#C[C@@]1(c2ccc3c(N)ncnn23)O[C@H](COC(=O)CC2CC2)[C@@H](O)[C@H]1O` [Compound 258, [(2R,3S,4R,5R)-5-{4-aminopyrrolo[2,1-f][1,2,4]triazin-7-yl}-5-cyano-3,4-dihydroxyoxolan-2-yl]methyl 2-cyclopropylacetate], for which, where the note is “Caco-2”, the Papp A→B at 90 min is 0.09 ×10⁻⁶ cm/s, the Papp B→A at 90 min was found to be 0.3 ×10⁻⁶ cm/s and the efflux ratio at 90 min came to 3.5.

`N#C[C@@]1(c2ccc3c(N)ncnn23)O[C@H](COP(=O)(O)OCCCCCCCCCCCCCCCC(=O)O)[C@@H](O)[C@H]1O` [Compound 8, 16-(((((2R,3S,4R,5R)-5-(4-aminopyrrolo[2,1-f][1,2,4]triazin-7-yl)-5-cyano-3,4-dihydroxytetrahydrofuran-2-yl)methoxy)(hydroxy)phosphoryl)oxy)hexadecanoic acid]: where the note is “Caco-2”, the Papp A→B at 90 min came out at 0.2 ×10⁻⁶ cm/s, the Papp B→A at 90 min was determined as 0.5 ×10⁻⁶ cm/s and the efflux ratio at 90 min was determined as 2.4.

With `N#C[C@@]1(c2ccc3c(NC(=O)c4ccccc4)ncnn23)O[C@H](COC(=O)CC2CCCCC2)[C@@H](O)[C@H]1O` [Compound 285, ((2R,3S,4R,5R)-5-(4-benzamidopyrrolo[2,1-f][1,2,4]triazin-7-yl)-5-cyano-3,4-dihydroxytetrahydrofuran-2-yl)methyl 2-cyclohexylacetate], where the note is “Caco-2”, the Papp A→B at 90 min was found to be 1.1 ×10⁻⁶ cm/s, the Papp B→A at 90 min was 0.9 ×10⁻⁶ cm/s and the efflux ratio at 90 min was 0.83.

With `CC(C)[C@H](N)C(=O)Nc1ncnn2c([C@]3(C#N)O[C@H](CO)[C@@H](OC(=O)Cc4ccccc4)[C@H]3O)ccc12` [Compound 144, (2R,3S,4R,5R)-5-(4-((S)-2-amino-3-methylbutanamido)pyrrolo[2,1-f][1,2,4]triazin-7-yl)-5-cyano-4-hydroxy-2-(hydroxymethyl)tetrahydrofuran-3-yl 2-phenylacetate], the Papp A→B at 90 min under setting [1] amounted to 0.03 ×10⁻⁶ cm/s. The Papp B→A at 90 min under setting [2] came to 1.8 ×10⁻⁶ cm/s. The efflux ratio at 90 min under setting [3] stood at 53.

For the compound `CCCCCOC(=O)Nc1ncnn2c([C@]3(C#N)O[C@H](CO)[C@@H](OC(=O)Cc4ccccc4)[C@H]3O)ccc12` [Compound 141, (2R,3S,4R,5R)-5-cyano-4-hydroxy-2-(hydroxymethyl)-5-(4-(((pentyloxy)carbonyl)amino)pyrrolo[2,1-f][1,2,4]triazin-7-yl)tetrahydrofuran-3-yl 2-phenylacetate], under setting [1], the Papp A→B at 90 min stood at 0.14 ×10⁻⁶ cm/s. Further, the Papp B→A at 90 min under setting [2] was determined as 0.04 ×10⁻⁶ cm/s. Also, the efflux ratio at 90 min under setting [3] amounted to 0.33.

`CC(C)(C)[C@H](N)C(=O)O[C@H]1[C@@H](O)[C@](C#N)(c2ccc3c(N)ncnn23)O[C@@H]1COC(=O)CC1CCCCC1` [Compound 397, (2R,3S,4R,5R)-5-(4-aminopyrrolo[2,1-f][1,2,4]triazin-7-yl)-5-cyano-2-((2-cyclohexylacetoxy)methyl)-4-hydroxytetrahydrofuran-3-yl (S)-2-amino-3,3-dimethylbutanoate]: for the setting “Caco-2”, the apical-to-basolateral permeability (Papp A→B) at 90 min is 2.8 ×10⁻⁶ cm/s, the Papp B→A at 90 min was found to be 7.3 ×10⁻⁶ cm/s and the efflux ratio at 90 min worked out at 2.6.

For the compound `CC(C)C(=O)OC[C@H]1O[C@@](C#N)(c2ccc3c(NC(=O)[C@@H](N)Cc4ccc(F)cc4)ncnn23)[C@H](O)[C@@H]1O` [Compound 100, ((2R,3S,4R,5R)-5-(4-((S)-2-amino-3-(4-fluorophenyl)propanamido)pyrrolo[2,1-f][1,2,4]triazin-7-yl)-5-cyano-3,4-dihydroxytetrahydrofuran-2-yl)methyl isobutyrate], where the note is “Caco-2”, the Papp A→B at 90 min worked out at 0.03 ×10⁻⁶ cm/s, the Papp B→A at 90 min amounted to 2.7 ×10⁻⁶ cm/s and the efflux ratio at 90 min is 92.

On to `CC(C)[C@H](N)C(=O)OC[C@H]1O[C@@](C#N)(c2ccc3c(N)ncnn23)[C@H](O)[C@@H]1O` [Compound 11, ((2R,3S,4R,5R)-5-(4-aminopyrrolo[2,1-f][1,2,4]triazin-7-yl)-5-cyano-3,4-dihydroxytetrahydrofuran-2-yl)methyl L-valinate], for which, for the setting “Caco-2”, the Papp A→B at 90 min was found to be 0.4 ×10⁻⁶ cm/s, the Papp B→A at 90 min worked out at 0.1 ×10⁻⁶ cm/s and the efflux ratio at 90 min stood at 0.4.

As for `CC(=O)N[C@H](C(=O)OC[C@H]1O[C@@](C#N)(c2ccc3c(N)ncnn23)[C@H](O)[C@@H]1OC(=O)CC1CCCCC1)C(C)(C)C` [Compound 413, ((2R,3S,4R,5R)-5-(4-aminopyrrolo[2,1-f][1,2,4]triazin-7-yl)-5-cyano-3-(2-cyclohexylacetoxy)-4-hydroxytetrahydrofuran-2-yl)methyl (S)-2-acetamido-3,3-dimethylbutanoate], where the note is “Caco-2”, the Papp A→B at 90 min amounted to 4.3 ×10⁻⁶ cm/s, the Papp B→A at 90 min amounted to 13.8 ×10⁻⁶ cm/s and the efflux ratio at 90 min was found to be 3.2.

In the case of `CCCCCOC(=O)Nc1ncnn2c([C@]3(C#N)O[C@H](COC(C)=O)[C@@H](O)[C@H]3O)ccc12` [Compound 87, ((2R,3S,4R,5R)-5-cyano-3,4-dihydroxy-5-(4-(((pentyloxy)carbonyl)amino)pyrrolo[2,1-f][1,2,4]triazin-7-yl)tetrahydrofuran-2-yl)methyl acetate], for the setting “Caco-2”, the Papp A→B at 90 min came to 5.5 ×10⁻⁶ cm/s, the Papp B→A at 90 min worked out at 14 ×10⁻⁶ cm/s and the efflux ratio at 90 min is 2.7.

For `CC(C)(C)C(=O)OCOC(=O)Nc1ncnn2c([C@]3(C#N)O[C@H](COC(=O)C(C)(C)C4CCCCC4)[C@@H](O)[C@H]3O)ccc12` [Compound 375, ((2R,3S,4R,5R)-5-cyano-3,4-dihydroxy-5-(4-((((pivaloyloxy)methoxy)carbonyl)amino)pyrrolo[2,1-f][1,2,4]triazin-7-yl)tetrahydrofuran-2-yl)methyl 2-cyclohexyl-2-methylpropanoate], for the setting “Caco-2”, the Papp A→B at 90 min was 0.02 ×10⁻⁶ cm/s, the Papp B→A at 90 min was determined as 0.02 ×10⁻⁶ cm/s and the efflux ratio at 90 min amounted to 1.1.

In the case of `CCC(=O)Nc1nc(NC)c2ncn([C@@H]3O[C@H](COC(C)=O)[C@@H](OC(=O)CC)[C@@]3(C)F)c2n1` [Compound 331, (2R,3R,4R,5R)-2-(acetoxymethyl)-4-fluoro-4-methyl-5-(6-(methylamino)-2-propionamido-9H-purin-9-yl)tetrahydrofuran-3-yl propionate], under “Caco-2”, the Papp A→B at 90 min was 7.9 ×10⁻⁶ cm/s, the Papp B→A at 90 min was 16 ×10⁻⁶ cm/s and the efflux ratio at 90 min stood at 2.1.

In the case of `CCC(=O)O[C@@H]1[C@@H](COC(C)=O)O[C@@H](n2cnc3c(NC)nc(N)nc32)[C@]1(C)F` [Compound 329, (2R,3R,4R,5R)-2-(acetoxymethyl)-5-(2-amino-6-(methylamino)-9H-purin-9-yl)-4-fluoro-4-methyltetrahydrofuran-3-yl propionate], for the setting “Caco-2”, the Papp A→B at 90 min came to 16 ×10⁻⁶ cm/s, the Papp B→A at 90 min was 18 ×10⁻⁶ cm/s and the efflux ratio at 90 min worked out at 1.1.

With `COC1(CC(=O)OC[C@H]2O[C@@](C#N)(c3ccc4c(N)ncnn34)[C@H](O)[C@@H]2O)CCCCC1` [Compound 287, ((2R,3S,4R,5R)-5-(4-aminopyrrolo[2,1-f][1,2,4]triazin-7-yl)-5-cyano-3,4-dihydroxytetrahydrofuran-2-yl)methyl 2-(1-methoxycyclohexyl)acetate], for the setting “Caco-2”, the Papp A→B at 90 min is 5.2 ×10⁻⁶ cm/s, the Papp B→A at 90 min amounted to 13 ×10⁻⁶ cm/s and the efflux ratio at 90 min came to 2.4.

Turning to `N#C[C@@]1(c2ccc3c(NC(=O)c4ccccc4)ncnn23)O[C@H](CO)[C@@H](O)[C@H]1O` [Compound 85, N-(7-((2R,3R,4S,5R)-2-cyano-3,4-dihydroxy-5-(hydroxymethyl)tetrahydrofuran-2-yl)pyrrolo[2,1-f][1,2,4]triazin-4-yl)benzamide], for the setting “Caco-2”, the Papp A→B at 90 min worked out at 0.37 ×10⁻⁶ cm/s, the Papp B→A at 90 min came to 11 ×10⁻⁶ cm/s and the efflux ratio at 90 min was 31.

Regarding `CCC(=O)OC[C@H]1O[C@@](C#N)(c2ccc3c(NC(=O)[C@@H](N)C(C)C)ncnn23)[C@H](O)[C@@H]1O` [Compound 115, ((2R,3S,4R,5R)-5-(4-((S)-2-amino-3-methylbutanamido)pyrrolo[2,1-f][1,2,4]triazin-7-yl)-5-cyano-3,4-dihydroxytetrahydrofuran-2-yl)methyl propionate], for the setting “Caco-2”, the Papp A→B at 90 min stood at 0.04 ×10⁻⁶ cm/s, the Papp B→A at 90 min worked out at 1.7 ×10⁻⁶ cm/s and the efflux ratio at 90 min was determined as 47.

Regarding `CC(C)[C@H](N)C(=O)O[C@H]1[C@@H](O)[C@](C#N)(c2ccc3c(NC(=O)c4ccccc4)ncnn23)O[C@@H]1CO` [Compound 128, (2R,3S,4R,5R)-5-(4-benzamidopyrrolo[2,1-f][1,2,4]triazin-7-yl)-5-cyano-4-hydroxy-2-(hydroxymethyl)tetrahydrofuran-3-yl L-valinate], for the setting “Caco-2”, the Papp A→B at 90 min stood at 0.3 ×10⁻⁶ cm/s, the Papp B→A at 90 min was 6.4 ×10⁻⁶ cm/s and the efflux ratio at 90 min was 22.

The values are drawn from patent US12102648B2, “Orally-bioavailable nucleoside analogs” (priority 2021, dated 2024).
